The values below are quoted from earlier work in US10894960B2, “Compositions and methods for nucleic acid transfer” (Children's Hospital Medical Center, priority 2016, dated 2021).

Each structure is given as a SMILES string.

One data set deals with SUR1 (Homo sapiens, UniProt Q09428). The conditions noted are these: Target SUR1, gene symbol ABCC8.
The target in a further data set is TOP2 beta (Homo sapiens, UniProt Q02880). As to conditions: Target TOP2 beta, gene symbol TOP2B.
A further data set addresses PARP-1 (Homo sapiens, UniProt P09874). As to conditions: Target PARP-1, gene symbol PARP1.
For the next data set, the target named is NR3A (Homo sapiens, UniProt Q8TCU5). As to conditions: Target NR3A, gene symbol GRIN3A.
Chain of NR3A (Q8TCU5 24-1115, species assumed, other chains not shown): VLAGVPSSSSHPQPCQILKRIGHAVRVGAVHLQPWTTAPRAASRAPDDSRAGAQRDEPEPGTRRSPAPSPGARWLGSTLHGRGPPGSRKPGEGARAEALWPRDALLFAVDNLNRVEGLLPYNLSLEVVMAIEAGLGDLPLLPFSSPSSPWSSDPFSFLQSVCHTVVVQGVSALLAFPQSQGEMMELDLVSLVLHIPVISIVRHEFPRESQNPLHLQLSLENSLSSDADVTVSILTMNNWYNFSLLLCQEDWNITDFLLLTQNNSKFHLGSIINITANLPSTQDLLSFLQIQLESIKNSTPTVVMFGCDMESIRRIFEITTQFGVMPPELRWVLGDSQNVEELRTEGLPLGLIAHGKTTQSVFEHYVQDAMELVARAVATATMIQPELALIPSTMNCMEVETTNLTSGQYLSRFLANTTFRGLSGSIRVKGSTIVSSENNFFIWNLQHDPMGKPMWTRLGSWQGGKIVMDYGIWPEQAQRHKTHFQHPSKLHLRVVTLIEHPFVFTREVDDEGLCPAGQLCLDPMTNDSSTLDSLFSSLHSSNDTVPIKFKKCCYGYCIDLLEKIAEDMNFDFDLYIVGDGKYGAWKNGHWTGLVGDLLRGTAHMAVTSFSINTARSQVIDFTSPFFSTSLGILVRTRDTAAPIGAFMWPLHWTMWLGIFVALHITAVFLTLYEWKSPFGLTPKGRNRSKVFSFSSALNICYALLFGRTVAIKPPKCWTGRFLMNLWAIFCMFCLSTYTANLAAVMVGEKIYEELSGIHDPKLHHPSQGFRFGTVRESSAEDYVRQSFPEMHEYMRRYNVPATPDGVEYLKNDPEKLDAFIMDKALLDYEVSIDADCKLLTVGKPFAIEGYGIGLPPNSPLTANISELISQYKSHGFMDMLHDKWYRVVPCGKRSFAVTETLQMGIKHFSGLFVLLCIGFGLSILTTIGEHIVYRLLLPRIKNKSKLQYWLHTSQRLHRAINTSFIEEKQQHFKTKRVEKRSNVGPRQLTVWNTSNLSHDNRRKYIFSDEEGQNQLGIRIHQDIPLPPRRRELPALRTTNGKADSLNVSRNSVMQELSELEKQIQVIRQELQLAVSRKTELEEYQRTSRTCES

Chain of SUR1 (Q09428 whole entry, species assumed): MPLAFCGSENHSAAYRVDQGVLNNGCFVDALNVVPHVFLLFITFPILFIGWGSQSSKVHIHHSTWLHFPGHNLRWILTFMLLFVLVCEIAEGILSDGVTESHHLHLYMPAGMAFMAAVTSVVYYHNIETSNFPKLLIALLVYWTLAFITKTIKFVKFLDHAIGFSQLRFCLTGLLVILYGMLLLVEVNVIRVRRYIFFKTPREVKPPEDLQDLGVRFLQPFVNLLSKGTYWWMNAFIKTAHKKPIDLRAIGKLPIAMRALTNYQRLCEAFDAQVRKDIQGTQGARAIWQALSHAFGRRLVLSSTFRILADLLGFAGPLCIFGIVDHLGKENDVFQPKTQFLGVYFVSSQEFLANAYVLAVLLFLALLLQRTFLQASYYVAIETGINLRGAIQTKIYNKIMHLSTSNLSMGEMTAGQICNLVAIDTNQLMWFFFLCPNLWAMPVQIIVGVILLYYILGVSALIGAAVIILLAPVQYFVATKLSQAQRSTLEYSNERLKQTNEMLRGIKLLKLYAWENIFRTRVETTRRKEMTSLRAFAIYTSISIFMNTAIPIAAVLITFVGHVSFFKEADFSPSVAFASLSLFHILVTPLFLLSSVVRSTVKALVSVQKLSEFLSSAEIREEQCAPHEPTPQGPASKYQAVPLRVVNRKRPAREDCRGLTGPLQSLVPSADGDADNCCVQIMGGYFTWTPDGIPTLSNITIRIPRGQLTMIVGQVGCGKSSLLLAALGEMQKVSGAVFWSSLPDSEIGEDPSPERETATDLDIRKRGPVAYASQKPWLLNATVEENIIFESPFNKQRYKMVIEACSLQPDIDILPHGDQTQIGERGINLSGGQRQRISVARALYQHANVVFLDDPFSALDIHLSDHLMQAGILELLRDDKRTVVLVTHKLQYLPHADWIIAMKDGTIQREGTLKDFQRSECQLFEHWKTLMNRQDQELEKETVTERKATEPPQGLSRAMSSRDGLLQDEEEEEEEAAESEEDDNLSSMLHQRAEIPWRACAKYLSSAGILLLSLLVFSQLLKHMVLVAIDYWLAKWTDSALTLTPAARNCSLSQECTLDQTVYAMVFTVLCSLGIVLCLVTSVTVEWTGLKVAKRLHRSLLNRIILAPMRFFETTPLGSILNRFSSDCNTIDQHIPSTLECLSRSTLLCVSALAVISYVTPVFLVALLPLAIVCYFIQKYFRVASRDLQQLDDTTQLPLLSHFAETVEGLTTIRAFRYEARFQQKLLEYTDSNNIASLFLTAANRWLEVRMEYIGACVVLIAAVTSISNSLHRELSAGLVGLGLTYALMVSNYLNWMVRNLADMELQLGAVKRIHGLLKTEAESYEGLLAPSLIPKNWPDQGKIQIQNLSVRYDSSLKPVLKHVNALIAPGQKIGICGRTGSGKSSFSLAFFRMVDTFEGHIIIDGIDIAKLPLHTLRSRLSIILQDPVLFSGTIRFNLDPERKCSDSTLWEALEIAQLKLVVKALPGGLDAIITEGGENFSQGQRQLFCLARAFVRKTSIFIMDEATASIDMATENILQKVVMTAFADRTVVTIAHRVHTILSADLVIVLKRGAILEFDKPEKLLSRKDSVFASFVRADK
Chain of SUR1 (Q14654 whole entry partner, species assumed): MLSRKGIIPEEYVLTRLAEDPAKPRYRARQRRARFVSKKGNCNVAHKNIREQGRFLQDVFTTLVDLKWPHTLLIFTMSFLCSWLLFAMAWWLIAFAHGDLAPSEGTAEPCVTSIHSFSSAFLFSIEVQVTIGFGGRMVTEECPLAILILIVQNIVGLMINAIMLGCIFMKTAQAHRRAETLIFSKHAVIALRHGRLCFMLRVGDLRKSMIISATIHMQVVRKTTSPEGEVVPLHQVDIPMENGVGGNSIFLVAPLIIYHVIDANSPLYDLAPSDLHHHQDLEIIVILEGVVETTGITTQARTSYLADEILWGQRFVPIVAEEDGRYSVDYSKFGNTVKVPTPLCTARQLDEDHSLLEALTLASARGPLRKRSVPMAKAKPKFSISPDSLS
Chain of TOP2 beta (Q02880 whole entry): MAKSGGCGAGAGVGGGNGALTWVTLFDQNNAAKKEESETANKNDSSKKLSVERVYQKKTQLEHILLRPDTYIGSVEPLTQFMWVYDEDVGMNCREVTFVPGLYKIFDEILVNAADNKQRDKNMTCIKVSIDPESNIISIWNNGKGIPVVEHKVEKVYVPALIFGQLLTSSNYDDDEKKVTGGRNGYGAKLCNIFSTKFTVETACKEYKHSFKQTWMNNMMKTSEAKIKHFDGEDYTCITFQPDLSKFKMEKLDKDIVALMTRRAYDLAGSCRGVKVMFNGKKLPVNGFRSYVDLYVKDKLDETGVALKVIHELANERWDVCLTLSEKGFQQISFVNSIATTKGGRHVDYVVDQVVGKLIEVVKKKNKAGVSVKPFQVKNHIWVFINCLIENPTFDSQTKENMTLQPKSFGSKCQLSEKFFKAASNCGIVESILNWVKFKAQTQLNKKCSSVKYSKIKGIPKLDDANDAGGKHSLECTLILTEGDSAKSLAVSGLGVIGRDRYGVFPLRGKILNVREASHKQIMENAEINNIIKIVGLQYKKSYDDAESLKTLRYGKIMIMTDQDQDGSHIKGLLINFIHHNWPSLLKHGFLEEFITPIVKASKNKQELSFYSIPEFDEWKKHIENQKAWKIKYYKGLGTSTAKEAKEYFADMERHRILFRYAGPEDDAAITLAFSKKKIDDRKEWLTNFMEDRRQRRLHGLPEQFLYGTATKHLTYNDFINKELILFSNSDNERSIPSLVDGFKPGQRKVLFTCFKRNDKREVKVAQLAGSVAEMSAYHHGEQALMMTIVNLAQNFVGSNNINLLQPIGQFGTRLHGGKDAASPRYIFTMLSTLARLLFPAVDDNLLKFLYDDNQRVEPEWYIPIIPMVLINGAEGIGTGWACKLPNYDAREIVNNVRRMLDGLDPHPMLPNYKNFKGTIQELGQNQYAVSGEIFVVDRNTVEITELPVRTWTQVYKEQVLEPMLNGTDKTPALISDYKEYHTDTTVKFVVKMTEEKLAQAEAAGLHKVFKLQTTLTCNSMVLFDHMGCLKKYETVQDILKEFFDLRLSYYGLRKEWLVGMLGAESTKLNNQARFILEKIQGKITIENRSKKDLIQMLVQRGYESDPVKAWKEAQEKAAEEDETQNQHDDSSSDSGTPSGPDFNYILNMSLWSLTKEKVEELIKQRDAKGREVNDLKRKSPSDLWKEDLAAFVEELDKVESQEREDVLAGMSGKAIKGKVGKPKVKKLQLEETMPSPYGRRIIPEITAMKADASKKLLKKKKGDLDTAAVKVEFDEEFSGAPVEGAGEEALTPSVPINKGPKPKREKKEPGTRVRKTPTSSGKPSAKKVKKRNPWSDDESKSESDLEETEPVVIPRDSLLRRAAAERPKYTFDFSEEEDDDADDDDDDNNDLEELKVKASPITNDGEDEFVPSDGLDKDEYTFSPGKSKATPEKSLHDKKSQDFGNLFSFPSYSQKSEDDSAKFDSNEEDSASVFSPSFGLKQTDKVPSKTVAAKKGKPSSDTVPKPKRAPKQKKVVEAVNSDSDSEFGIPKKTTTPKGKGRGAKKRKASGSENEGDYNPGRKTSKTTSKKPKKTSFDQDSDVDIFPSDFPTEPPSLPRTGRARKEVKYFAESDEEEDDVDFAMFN

Consider `CCOc1cc(CC(=O)N[C@@H](CC(C)C)c2ccccc2N2CCCCC2)ccc1C(=O)O` (racemic) [(R/S)-Repaglinide], for which the Effect entry on SUR1 is recorded as “Inhibition”.

`CC(=O)c1ccc(S(=O)(=O)NC(=O)NC2CCCCC2)cc1` [Acetohexamide]: the Effect result on SUR1 is “Activation”.

As for `C[C@@H]1O[C@@H](O[C@H]2C[C@](O)(C(=O)CO)Cc3c(O)c4c(c(O)c32)C(=O)c2ccccc2C4=O)[C@H](I)[C@H](O)[C@H]1O` [Annamycin], the Effect entry on TOP2 beta is “Inhibition”.

`O=[As]O[As]=O` (stereo not shown) [As(,2)O(,3)]: at PARP-1, the Effect entry is on record as “Inhibition”.

`CC1=NS(=O)(=O)c2cc(Cl)ccc2N1` [Diazoxide]: the Effect result on SUR1 is recorded as “Activation”.

Turning to `CO[C@@H]1[C@@H](N)[C@@H](O[C@H]2[C@H](Oc3cccc4c(O)c5c(=O)oc6ccc(C)c7c(=O)oc(c34)c5c67)O[C@H](C)[C@H](O)[C@]2(C)O)O[C@H](C)[C@@H]1O` [Elsamitrucin], the Effect entry at TOP2 beta is “Inhibition”.

With `O=C(Nc1ccc2ncccc2c1)C(=O)c1cn(Cc2ccc(Cl)cc2)c2ccccc12` [Entasobulin], the Effect result on TOP2 beta is recorded as “Inhibition”.

`COc1cc([C@@H]2c3cc4c(cc3[C@@H](O[C@@H]3O[C@@H]5CO[C@@H](C)O[C@H]5[C@H](O)[C@H]3O)[C@H]3COC(=O)[C@H]23)OCO4)cc(OC)c1O` [Etoposide]: the Effect result on TOP2 beta is on record as “Inhibition”.

Regarding `CCC1=C(C)CN(C(=O)NCCc2ccc(S(=O)(=O)NC(=O)N[C@H]3CC[C@H](C)CC3)cc2)C1=O` [Glimepiride], the Effect result on SUR1 is “Inhibition”.

For `Cc1cnc(NCCCN(C)C)c2c1[nH]c1ccc3cc(O)ccc3c12` [Intoplicine], the Effect entry on TOP2 beta is given as “Inhibition”.

With `CNC1(c2ccccc2Cl)CCCCC1=O` (stereo not shown) [Ketamine], the Effect entry on NR3A is recorded as “Inhibition”.

As to `CC12CC3CC(C)(C1)CC(N)(C3)C2` [Memantine], at NR3A, the Effect result was “Inhibition”.

Turning to `COc1ccc2c(c[n+](C)c3c4cc5c(cc4ccc23)OCO5)c1O` [NK109], the Effect result on TOP2 beta was “Inhibition”.

Consider `COc1cc([C@@H]2c3cc4c(cc3[C@@H](CCN(C)CCN(C)C)[C@H]3COC(=O)[C@H]23)OCO4)cc(OC)c1O` [TOP53], for which the Effect entry at TOP2 beta is “Inhibition”.

As to `C1CCC2(C1)C1CN(CC3CC3)CC2CN(CC2CC2)C1` [Tedisamil], the Effect entry at SUR1 is “Inhibition”.

On to `COc1cc([C@@H]2c3cc4c(cc3[C@@H](O[C@@H]3O[C@@H]5CO[C@@H](c6cccs6)O[C@H]5[C@H](O)[C@H]3O)[C@H]3COC(=O)[C@H]23)OCO4)cc(OC)c1O` [Teniposide], for which, at TOP2 beta, the Effect entry was “Inhibition”.
